From ChEMBL document CHEMBL5241122, “A concise review on marine bromopyrrole alkaloids as anticancer agents” (Bioorg Med Chem Lett, 2023) come the findings set out here.

Assay [1] concerns the target E3 ubiquitin-protein ligase CBL-B (Homo sapiens, UniProt Q13191). The assay is described as follows: Inhibition of Cbl-b (unknown origin) assessed as inhibition of Cbl-b dependent ubiquitination in presence of ATP measured after 13 hrs by fluorescence microplate reader assay.
The target of assay [2] is Receptor tyrosine-protein kinase erbB-2 (Homo sapiens, UniProt P04626). The assay is described as follows: Inhibition of c-ErbB-2 (unknown origin).
Sequence of Receptor tyrosine-protein kinase erbB-2 (P04626 whole entry): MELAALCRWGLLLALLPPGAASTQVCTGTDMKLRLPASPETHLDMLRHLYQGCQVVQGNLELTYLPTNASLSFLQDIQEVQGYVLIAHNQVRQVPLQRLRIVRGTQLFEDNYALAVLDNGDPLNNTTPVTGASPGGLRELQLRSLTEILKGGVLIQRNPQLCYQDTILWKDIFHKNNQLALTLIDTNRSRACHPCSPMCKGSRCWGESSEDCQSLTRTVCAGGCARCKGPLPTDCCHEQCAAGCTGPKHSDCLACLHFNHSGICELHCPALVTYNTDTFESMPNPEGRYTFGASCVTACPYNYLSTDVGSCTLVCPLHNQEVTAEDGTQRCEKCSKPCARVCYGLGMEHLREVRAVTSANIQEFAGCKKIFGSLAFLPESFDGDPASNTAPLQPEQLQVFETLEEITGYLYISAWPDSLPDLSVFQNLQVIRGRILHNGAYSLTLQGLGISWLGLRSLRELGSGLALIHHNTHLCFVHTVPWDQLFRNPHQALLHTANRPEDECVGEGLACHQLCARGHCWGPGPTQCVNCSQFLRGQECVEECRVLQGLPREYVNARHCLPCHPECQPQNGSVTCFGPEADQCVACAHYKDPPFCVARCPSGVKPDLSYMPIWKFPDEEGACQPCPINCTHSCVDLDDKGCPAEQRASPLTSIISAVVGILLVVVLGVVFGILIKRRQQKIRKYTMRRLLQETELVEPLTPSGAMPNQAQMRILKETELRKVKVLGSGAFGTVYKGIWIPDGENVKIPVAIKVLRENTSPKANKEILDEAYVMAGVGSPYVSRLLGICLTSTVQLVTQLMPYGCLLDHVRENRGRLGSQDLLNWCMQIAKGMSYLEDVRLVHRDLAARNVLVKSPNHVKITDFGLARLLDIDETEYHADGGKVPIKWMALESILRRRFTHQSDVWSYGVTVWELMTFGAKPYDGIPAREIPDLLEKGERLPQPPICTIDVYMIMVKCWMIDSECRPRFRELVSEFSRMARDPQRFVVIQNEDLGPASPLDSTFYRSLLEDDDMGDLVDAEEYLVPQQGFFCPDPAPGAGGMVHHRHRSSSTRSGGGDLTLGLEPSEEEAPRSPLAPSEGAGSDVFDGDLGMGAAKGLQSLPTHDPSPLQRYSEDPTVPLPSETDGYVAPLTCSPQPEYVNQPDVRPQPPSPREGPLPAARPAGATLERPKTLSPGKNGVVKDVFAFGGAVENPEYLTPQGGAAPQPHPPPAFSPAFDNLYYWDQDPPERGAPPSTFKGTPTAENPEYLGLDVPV
Assay [3] deals with Cyclin-dependent kinase 4 (Homo sapiens, UniProt P11802). The assay is described as follows: Inhibition of CDK4 (unknown origin).
Sequence of Cyclin-dependent kinase 4 (P11802 whole entry): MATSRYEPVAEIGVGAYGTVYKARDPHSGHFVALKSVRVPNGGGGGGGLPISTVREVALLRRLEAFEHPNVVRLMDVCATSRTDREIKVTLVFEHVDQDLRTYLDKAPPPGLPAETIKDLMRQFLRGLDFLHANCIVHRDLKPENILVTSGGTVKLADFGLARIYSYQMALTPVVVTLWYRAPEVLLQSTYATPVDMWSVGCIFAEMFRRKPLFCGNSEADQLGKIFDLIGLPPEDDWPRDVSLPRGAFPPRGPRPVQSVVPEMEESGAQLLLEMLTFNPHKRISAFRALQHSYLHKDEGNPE
In assay [4] the test system is MCF7. Description: Cytotoxicity against human MCF7 cells by MTT assay. In kind it is functional, cell-based.
Assay [5] concerns WRL68. Description: Cytotoxicity against human WRL68 cells by MTT assay. In kind it is functional, cell-based.
Assay [6] concerns Caco-2. Description: Cytotoxicity against human Caco-2 cells by MTT assay. In kind it is functional, cell-based.
For assay [7], the system named is PC-9. Description: Cytotoxicity against human PC-9 cells incubated for 48 hrs by MTT assay. It is filed as functional, cell-based. As to conditions: PC-9, 48 h.
Assay [8] relates to U-937. Description: Cytotoxicity against human U-937 cells incubated for 48 hrs by MTT assay. It is filed as functional, cell-based. As to conditions: U-937, 48 h.
A short description of assay [9]: Displacement of [125I]-somatostatin from somatostatin (unknown origin) incubated for 60 mins by gamma scintillation counter analysis. Also on record: species or system Homo sapiens.
For assay [10], the target named is VIP peptides (Homo sapiens, UniProt P01282). Description: Displacement of [125I]-VIP from Vasoactive intestinal peptide (unknown origin) incubated for 120 mins by gamma scintillation counter analysis.
Sequence of VIP peptides (P01282 125-152 limits assumed): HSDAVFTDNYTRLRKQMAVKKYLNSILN
Assay [11] has as its system P388. The assay is described as follows: Cytotoxicity against mouse P388 cells. In kind it is functional, cell-based.
In assay [12] the test system is L1210. Description: Cytotoxicity against mouse L1210 cells. In kind it is functional, cell-based.
The subject of assay [13] is KB. The assay is described as follows: Cytotoxicity against human KB cells. It is filed as functional, cell-based.
For assay [14], the system named is LoVo. The assay is described as follows: Cytotoxicity against human LoVo cells incubated for 72 hrs by MTT assay. It is filed as functional, cell-based.
The subject of assay [15] is Bel-7402. Description: Cytotoxicity against human Bel-7402 cells incubated for 72 hrs by MTT assay. As to conditions: Bel-7402, 72 h. In kind it is functional, cell-based.
For assay [16], the system named is MCF7. Description: Cytotoxicity against human MCF7 cells incubated for 72 hrs by MTT assay. In kind it is functional, cell-based. As to conditions: MCF7, 72 h.
For assay [17], the system named is HeLa. Description: Cytotoxicity against human HeLa cells incubated for 72 hrs by MTT assay. In kind it is functional, cell-based.
For assay [18], the system named is CNE. Description: Cytotoxicity against human CNE cells incubated for 72 hrs by MTT assay. It is filed as functional, cell-based.
The test system of assay [19] is HepG2. The assay is described as follows: Cytotoxicity against human HepG2 cells incubated for 72 hrs by MTT assay. In kind it is functional, cell-based. As to conditions: HepG2, 72 h.
The test system of assay [20] is K562. The assay is described as follows: Cytotoxicity against human K562 cells. In kind it is functional, cell-based.
For assay [21], the system named is Jurkat. The assay is described as follows: Antiinflammatory activity in PMA induced human Jurkat cells assessed as inhibition of IL-2 production by EIA assay. It is filed as functional, cell-based.
Assay [22] has as its system THP-1. The assay is described as follows: Antiinflammatory activity in LPS induced human THP-1 cells assessed as inhibition of TNF-alpha production by EIA assay. In kind it is functional, cell-based.
Assay [23] addresses Epidermal growth factor receptor (Homo sapiens, UniProt P00533). The assay is described as follows: Inhibition of EGFR (unknown origin).
A short description of assay [24]: Inhibition of recombinant human MAPK expressed in Escherichia coli assessed as reduction in MEK-1 phosphorylation incubated for 60 mins by ELISA assay.
Assay [25] concerns LoVo. Description: Inhibition of cell growth in human LoVo cells by SRB assay. In kind it is functional, cell-based.
The nature of assay [26]: Inhibition of CK1gamma (unknown origin). On the set-up: species or system Homo sapiens.
The target in assay [27] is Cyclin-dependent kinase 5/CDK5 activator 1 (Homo sapiens, UniProt Q00535). The assay is described as follows: Inhibition of CDK5/p25 (unknown origin). It is filed as protein-complex assay.
Sequence of Cyclin-dependent kinase 5/CDK5 activator 1 (Q00535 whole entry): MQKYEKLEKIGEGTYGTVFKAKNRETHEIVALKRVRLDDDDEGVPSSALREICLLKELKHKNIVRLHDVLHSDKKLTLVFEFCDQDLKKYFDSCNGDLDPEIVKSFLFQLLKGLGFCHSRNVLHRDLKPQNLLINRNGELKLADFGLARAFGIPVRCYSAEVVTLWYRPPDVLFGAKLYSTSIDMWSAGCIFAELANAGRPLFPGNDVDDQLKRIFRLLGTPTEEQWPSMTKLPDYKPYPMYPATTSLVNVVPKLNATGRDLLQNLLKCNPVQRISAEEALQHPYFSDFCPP
Sequence of Cyclin-dependent kinase 5/CDK5 activator 1 (Q15078 whole entry, further chain): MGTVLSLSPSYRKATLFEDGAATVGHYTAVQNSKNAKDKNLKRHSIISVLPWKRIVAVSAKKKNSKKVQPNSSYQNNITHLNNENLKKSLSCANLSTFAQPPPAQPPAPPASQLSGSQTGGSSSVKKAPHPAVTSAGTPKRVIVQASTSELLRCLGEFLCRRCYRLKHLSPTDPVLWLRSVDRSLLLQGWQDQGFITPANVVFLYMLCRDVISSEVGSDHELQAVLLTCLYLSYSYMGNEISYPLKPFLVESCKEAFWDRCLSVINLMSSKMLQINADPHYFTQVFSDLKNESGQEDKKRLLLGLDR
Assay [28] relates to SW-620. The assay is described as follows: Cytotoxicity against human SW620 cells assessed as cell growth inhibition. In kind it is functional, cell-based.
In assay [29] the test system is KB 3-1. The assay is described as follows: Cytotoxicity against human KB-3-1 cells assessed as cell growth inhibition. In kind it is functional, cell-based.

Sequence of E3 ubiquitin-protein ligase CBL-B (Q13191 whole entry): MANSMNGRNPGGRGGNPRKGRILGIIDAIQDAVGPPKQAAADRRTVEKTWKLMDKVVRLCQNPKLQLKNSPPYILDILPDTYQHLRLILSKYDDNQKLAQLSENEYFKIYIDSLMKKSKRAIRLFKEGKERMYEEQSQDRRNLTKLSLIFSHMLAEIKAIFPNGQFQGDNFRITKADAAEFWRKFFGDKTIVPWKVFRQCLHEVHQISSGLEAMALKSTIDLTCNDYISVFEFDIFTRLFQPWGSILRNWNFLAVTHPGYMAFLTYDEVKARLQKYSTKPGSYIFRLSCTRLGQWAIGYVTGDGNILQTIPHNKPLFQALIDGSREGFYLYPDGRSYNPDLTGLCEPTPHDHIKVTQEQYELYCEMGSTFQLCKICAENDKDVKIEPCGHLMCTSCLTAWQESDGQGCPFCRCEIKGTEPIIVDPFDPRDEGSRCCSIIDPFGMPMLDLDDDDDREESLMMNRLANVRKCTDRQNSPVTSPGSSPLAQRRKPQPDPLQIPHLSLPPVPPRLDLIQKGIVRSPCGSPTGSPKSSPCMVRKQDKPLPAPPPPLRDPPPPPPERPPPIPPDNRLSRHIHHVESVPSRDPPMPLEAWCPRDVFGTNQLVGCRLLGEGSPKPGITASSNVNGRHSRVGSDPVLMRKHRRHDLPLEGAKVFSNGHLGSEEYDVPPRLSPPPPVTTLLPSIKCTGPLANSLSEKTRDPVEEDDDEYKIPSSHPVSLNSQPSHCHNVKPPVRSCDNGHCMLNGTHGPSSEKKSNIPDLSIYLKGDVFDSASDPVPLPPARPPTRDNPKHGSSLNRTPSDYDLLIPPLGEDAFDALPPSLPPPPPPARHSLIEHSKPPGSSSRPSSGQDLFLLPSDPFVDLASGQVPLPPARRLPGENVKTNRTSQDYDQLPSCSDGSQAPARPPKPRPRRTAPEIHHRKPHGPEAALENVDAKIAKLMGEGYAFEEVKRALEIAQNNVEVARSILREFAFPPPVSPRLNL
Sequence of Epidermal growth factor receptor (P00533 whole entry): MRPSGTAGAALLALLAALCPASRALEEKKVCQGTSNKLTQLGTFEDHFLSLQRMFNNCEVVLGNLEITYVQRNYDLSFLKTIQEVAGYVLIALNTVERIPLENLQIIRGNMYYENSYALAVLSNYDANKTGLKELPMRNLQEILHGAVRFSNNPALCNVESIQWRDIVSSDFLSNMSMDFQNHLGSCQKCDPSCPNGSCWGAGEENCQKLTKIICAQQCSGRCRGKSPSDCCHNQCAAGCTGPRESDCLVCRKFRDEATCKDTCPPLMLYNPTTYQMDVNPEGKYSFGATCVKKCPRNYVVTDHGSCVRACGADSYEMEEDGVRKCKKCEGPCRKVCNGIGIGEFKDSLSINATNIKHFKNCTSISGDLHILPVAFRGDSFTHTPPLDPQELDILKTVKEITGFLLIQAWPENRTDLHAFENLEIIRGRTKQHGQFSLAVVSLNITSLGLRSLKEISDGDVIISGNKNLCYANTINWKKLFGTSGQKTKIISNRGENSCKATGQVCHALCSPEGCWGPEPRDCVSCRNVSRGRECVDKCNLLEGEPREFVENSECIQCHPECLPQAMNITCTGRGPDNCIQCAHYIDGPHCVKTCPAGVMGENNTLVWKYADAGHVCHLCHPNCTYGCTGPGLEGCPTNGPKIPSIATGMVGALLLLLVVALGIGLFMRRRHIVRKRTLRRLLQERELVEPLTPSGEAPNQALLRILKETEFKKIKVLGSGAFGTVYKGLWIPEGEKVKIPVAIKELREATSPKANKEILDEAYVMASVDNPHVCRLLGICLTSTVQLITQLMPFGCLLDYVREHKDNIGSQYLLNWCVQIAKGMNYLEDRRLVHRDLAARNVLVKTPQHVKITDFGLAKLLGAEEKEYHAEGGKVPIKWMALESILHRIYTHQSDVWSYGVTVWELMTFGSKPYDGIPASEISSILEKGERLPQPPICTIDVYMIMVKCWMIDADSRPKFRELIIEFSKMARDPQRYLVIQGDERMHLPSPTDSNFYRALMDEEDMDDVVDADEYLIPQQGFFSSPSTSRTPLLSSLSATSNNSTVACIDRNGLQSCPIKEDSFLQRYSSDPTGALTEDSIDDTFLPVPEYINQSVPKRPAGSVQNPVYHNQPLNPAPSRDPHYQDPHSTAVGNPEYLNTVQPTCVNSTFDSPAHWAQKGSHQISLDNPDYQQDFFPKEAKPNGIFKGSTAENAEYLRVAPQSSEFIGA

Turning to `Cn1cc(Br)cc1C(=O)NC[C@H]1CC2N=C(N)NC2[C@@H](c2c[nH]c(N)n2)[C@@H]1CNC(=O)c1cc(Br)cn1C` (some centres undefined), the IC50 in assay [1] was found to be 18 µM.

Regarding `N=C1NC(=O)/C(=C2/CCNC(=O)c3[nH]cc(Br)c32)N1`, the IC50 came to 18.5 µM in assay [2] and 29.6 µM in [3].

With `Cc1ccccc1NC(=S)NNC(=O)c1cc(Br)c(Br)n1C`, the half-inhibitory concentration (IC50) in assay [4], in [5] and in assay [6] was 70 nM each time.

Regarding `COc1cccc2c1C(=O)c1c(O)c3c(c(O)c1C2=O)C[C@@](O)(C(=O)CO)C[C@@H]3O[C@H]1C[C@H](N)[C@H](O)[C@H](C)O1` [DOXORUBICIN], the IC50 in assay [7] was determined as 220 nM; in assay [8], 50 nM.

For `Nc1nc([C@H]2[C@H](CNC(=O)c3cc(Br)c[nH]3)[C@@H](CNC(=O)c3cc(Br)c[nH]3)[C@@H]2c2c[nH]c(N)n2)c[nH]1` [SCEPTRIN], the IC50 is 270 nM in [9] and 19.8 µM in [10].

With `COC(=O)CC1CNC(=O)c2cc(Br)c(Br)n21` (racemic), the EC50 in assay [11] (read-out: ED50 (the source's name)) stood at 82 µM.

Consider `Cn1cc(Br)cc1C(=O)NC[C@@H]1[C@@H](CNC(=O)c2ccc(Br)[nH]2)CC2N=C(N)NC2[C@H]1c1c[nH]c(N)n1` (some centres undefined), for which the IC50 in [1] is 18 µM.

As to `N=C1N=C(NCCS(=O)(=O)O)/C(=C/C(O)CNC(=O)c2cc(Br)c[nH]2)N1` (mixture of isomers), in assay [2], the midpoint of inhibition, the IC50, lay at 37.9 µM.

As for `NC1=N[C@@]23CCCN2C(=O)c2c([nH]c(Br)c2Br)[C@H]3N1`, it took 20.3 µM to reach half-maximal inhibition in assay [11] (IC50).

For `Cn1cccc1C(=O)NC[C@H]1CC2N=C(N)NC2[C@@H](c2c[nH]c(N)n2)[C@@H]1CNC(=O)c1cc(Br)c(Br)n1C` (some centres undefined), the IC50 in assay [1] amounted to 18 µM.

As for `NC1=N[C@]23[C@H](N1)c1[nH]c(Br)c(Br)c1C(=O)N2C[C@H](O)[C@H]3O`, the IC50 in [11] stood at 78.4 µM.

As for `Cn1c(C(=O)NC[C@H]2CC3N=C(N)NC3[C@@H](c3c[nH]c(N)n3)[C@@H]2CNC(=O)c2cc(Br)c[nH]2)cc(Br)c1Br` (some centres undefined), the IC50 in [1] was found to be 18 µM.

`NC1NC[C@H](O)[C@@]2(N1)[C@H]1[C@H](CN3C(=O)c4cc(Br)cn4[C@H]4NC(N)N[C@@]413)[C@H](CNC(=O)c1cc(Br)c(Br)[nH]1)[C@@H]2Cl` (some centres undefined): the IC50 is 26.7 µM in assay [12], 26.1 µM in assay [3] and 26.7 µM in assay [13].

Regarding `Cn1cc(Br)cc1C(=O)NC[C@H]1CC2N=C(N)NC2[C@@H](c2c[nH]c(N)n2)[C@@H]1CNC(=O)c1cc(Br)c[nH]1` (some centres undefined), the IC50 in assay [1] came to 18 µM.

With `COC(=O)C(NCC(=O)c1cc(Br)c(Br)[nH]1)C(C)C` (centres undefined), the IC50 was determined as 960 nM in assay [14]; 27.8 µM in [15]; 28.6 µM in assay [16]; 13.8 µM in [17]; 43.5 µM in assay [18]; 15.3 µM in [19].

For `NC1NC(/C=C/CNC(=O)c2cc(Br)c(Br)[nH]2)=C([n+]2cccc(O)c2)N1` (centres undefined), the IC50 in assay [13] and in assay [20] was 20.7 µM in each case.

As for `S=C(S)N1CCCC1` [PYRROLIDINE DITHIOCARBAMATE], the 50% inhibitory concentration (IC50) was determined as 5.12 µM in assay [21] and 6.11 µM in assay [22].

In the case of `N=C1N=C(NCCS(=O)(=O)O)/C(=C/C(O)CNC(=O)c2cc(Br)c(Br)[nH]2)N1` (mixture of isomers) [TAUROACIDIN A], the figures for the IC50 in [23] and in assay [2] were 44.6 µM and 37.9 µM, respectively.

Turning to `NC1=N/C(=C2\CCNC(=O)c3[nH]c(Br)cc32)C(=O)N1`, the IC50 in assay [24] and in [25] was 3 nM in each case.

In the case of `N=C1NC(=O)C(=C2CCNC(=O)c3[nH]c(Br)cc32)N1`, the IC50 in assay [26] is 30 nM; in assay [27], 160 nM; in assay [28] it was 3.1 µM; in assay [29], 2000 nM.
